Results from US5945549A, “Production of aqueous solutions of mixtures of formyltertrahydrofuran and hydrates thereof” (Eastman Chemical Company, priority 1999, dated 1999).
Like-named read-outs stand apart in the source and are kept apart here. One block for each molecule: values may come before it.

Assays:
[1] = Solvent partition coefficient into water, with and without 3-FTHF co-solvent (Examples 45-56); type: physicochemical; conditions: no co-solvent; H2O:(S + CS) 1:1
Description: These examples include materials which could act as solvents for the reaction and extraction.

[2] = Partition coefficient of triphenylphosphine between toluene and water; type: physicochemical
Description: Rhodium, the other component of the catalyst, exists primarily as rhodium (I) hydrido carbonyl bis (triphenylphosphine) complex and accompanies the triphenylphosphine with a similar partition coefficient.

[3] = 3-FTHF solubility in solvent; type: physicochemical
Protocol: Partition coefficients also were determined by the same procedures for using the inert organic solvents 1-decanol (alcohol), isobutyl isobutyrate (ester, IBIB), 2,2,4-trimethyl-1,3-pentanediol monoisobutyrate (alcohol ester, TMPD-MIB), and dimethyl terphthalate (aromatic diester, DMT). The 3-FTHF:Solvent:Water volume ratios used in each of Examples 37-44 was 3:3:4. The partition coefficients are shown in Table VI wherein the values specified for 3-FTHF Solubility in Solvent are weight percentages, the values given for Temp are the temperatures (° C.), K3FTHF is the partition coefficient for 3-FTHF determined as described above and Ksolvent is the coefficient for the solvent utilized in each example determined form its solubility in the two phase and affected by the presence of the 3-FTHF substrate.

[4] = Hydration equilibrium 3-FTHF/3-DHMTHF in water by proton nuclear magnetic resonance; type: physicochemical
Protocol: The maximum density shown in Table I corresponds approximately to the composition for 3-DHMTHF. […] Confirmation of the formation of 3-DHMTHF when 3-FTHF is added to water comes from proton Nuclear Magnetic Resonance spectroscopy. At room temperature, 50 weight percent solutions of aqueous 3-FTHF show two components: 79 mole percent 3-DHMTHF and only 21 mole percent 3-FTHF. Furthermore, changing the water concentration either directly or by using water miscible solvents reversibly changes the 3-DHMTHF:3-FTHF mole ratio indicating a rapidly established equilibrium between the two components as well as showing their relative stability. The relative amounts of 3-FTHF and 3-DHMTHF at varying water/3-FTHF concentrations as determined by proton nuclear magnetic resonance spectroscopy are shown in Table II wherein the values given for "Water", "3-FTHF" and "Solvent" are weight percentages based on the total weight of the 3 component composition and "Solvent" refers to CD3 COCD3 (NMR solvent).
In Table II the value given for the 3-FTHF component is the amount of 3-FTHF dissolved in the composition although in aqueous solution it exists both as 3-FTHF and 3-DHMTHF. Some of the 3-FTHF in the water solution also exists in the form of an acetal, e.g., depending on the concentration, up to about 70 mole percent (at very high concentrations) but usually only about 0.5 mole percent (at 50 weight percent concentration) of the 3-FTHF is in the form of an acetal having the structure: [drawing 4] wherein n is 2.

[5] = Share of diol, hemiacetal or acetal in aqueous solution; type: physicochemical
[6] = type: physicochemical
Protocol: Partition coefficients also were determined by the same procedures for using the inert organic solvents 1-decanol (alcohol), isobutyl isobutyrate (ester, IBIB), 2,2,4-trimethyl-1,3-pentanediol monoisobutyrate (alcohol ester, TMPD-MIB), and dimethyl terphthalate (aromatic diester, DMT).

[7] = 50 weight percent aqueous 3-FTHF, room temperature
[8] = Water 6.1, 3-FTHF 6.3, CD3COCD3 87.6 wt %
[9] = Water 10.4, 3-FTHF 13.8, CD3COCD3 75.8 wt %
[10] = Water 15.2, 3-FTHF 20.2, CD3COCD3 64.6 wt %
[11] = Water 19.8, 3-FTHF 26.2, CD3COCD3 54.0 wt %
[12] = Water 24.1, 3-FTHF 32.0, CD3COCD3 43.9 wt %
[13] = Water 31.4, 3-FTHF 43.5, CD3COCD3 25.1 wt %
[14] = Water 36.9, 3-FTHF 46.6, CD3COCD3 16.5 wt %
[15] = Water 37.6, 3-FTHF 54.4, CD3COCD3 8.0 wt %
[16] = Water 45.0, 3-FTHF 55.0, CD3COCD3 0.0 wt %
[17] = 3-FTHF:Solvent:Water 3:3:4 by volume, 24.1-25.7 °C

Molecule: COC(=O)c1ccccc1C(=O)OC [DMP, dimethyl phthalate]
Solvent Partition Coefficient [1]: 0.00731

Molecule: c1ccc(P(c2ccccc2)c2ccccc2)cc1 [triphenylphosphine]
effective partition coefficient of triphenylphosphine ([2]; 10 percent emulsion): 0.095
partition coefficient of triphenylphosphine between toluene and water ([2]; Example 57, 50:1 triphenylphosphine:toluene, 1:1 water:triphenylphosphine+toluene by volume): 0.00433
partition coefficient of triphenylphosphine ([2]; aqueous/toluene, room temperature, 50 weight percent water in aqueous phase): 0.0043

3-FTHF Solubility in Solvent ([3]; in 1-decanol): 100 weight percentages
3-FTHF Solubility in Solvent ([3]; in DIPB): 100 weight percentages
3-FTHF Solubility in Solvent ([3]; in DMT): 100 weight percentages
3-FTHF Solubility in Solvent ([3]; in IBIB): 100 weight percentages
3-FTHF Solubility in Solvent ([3]; in TMPD-MIB): 100 weight percentages
3-FTHF Solubility in Solvent ([3]; in isooctane): 2.36 weight percentages
3-FTHF Solubility in Solvent ([3]; in n-decane): 0.93 weight percentages
3-FTHF Solubility in Solvent ([3]; in p-xylene): 100 weight percentages
3-FTHF Solubility in Solvent ([3]; in toluene): 100 weight percentages
Mole Percent in equilibrium [4, 7]: 21 mole percent
Mole Percent in equilibrium [4, 8]: 78.4 Mole Percent
Mole Percent in equilibrium [4, 9]: 68.8 Mole Percent
Mole Percent in equilibrium [4, 10]: 58.1 Mole Percent
Mole Percent in equilibrium [4, 11]: 51.1 Mole Percent
Mole Percent in equilibrium [4, 12]: 43.4 Mole Percent
Mole Percent in equilibrium [4, 13]: 33.3 Mole Percent
Mole Percent in equilibrium [4, 14]: 28.8 Mole Percent
Mole Percent in equilibrium [4, 15]: 24.9 Mole Percent
Mole Percent in equilibrium [4, 16]: 21.0 Mole Percent
3-FTHF in the form of an acetal (n is 2) ([5]; at 50 weight percent concentration): about 0.5 mole percent
3-FTHF in the form of an acetal (n is 2) ([5]; at very high concentrations): up to 70 mole percent
Molecule: O=CC1CCOC1 (stereo not shown) [3-FTHF, 3-formyltetrahydrofuran]

Mole Percent in equilibrium [4, 7]: 79 mole percent
Mole Percent in equilibrium [4, 8]: 21.6 Mole Percent
Mole Percent in equilibrium [4, 9]: 31.2 Mole Percent
Mole Percent in equilibrium [4, 10]: 41.9 Mole Percent
Mole Percent in equilibrium [4, 11]: 48.9 Mole Percent
Mole Percent in equilibrium [4, 12]: 56.6 Mole Percent
Mole Percent in equilibrium [4, 13]: 66.7 Mole Percent
Mole Percent in equilibrium [4, 14]: 71.2 Mole Percent
Mole Percent in equilibrium [4, 15]: 75.1 Mole Percent
Mole Percent in equilibrium [4, 16]: 79.0 Mole Percent
Molecule: OC(O)C1CCOC1 (stereo not shown) [3-DHMTHF, 3-Dihydroxymethyltetrahydrofuran]

KSolvent partition coefficient [6, 17]: 0.00772
Solvent Partition Coefficient [1]: 0.00116
Molecule: CC(C)COC(=O)C(C)C [IBIB, isobutyl isobutyrate, reference compound]

Molecule: CC(C)c1cccc(C(C)C)c1 [DIPB, 1,3-diisopropylbenzene, reference compound]
KSolvent partition coefficient [6, 17]: 0.01904

KSolvent partition coefficient [6]: 0.00481
Molecule: 2,2,4-trimethyl-1,3-pentanediol monoisobutyrate [TMPD-MIB, reference compound]

KSolvent partition coefficient [6]: 0.00746
Molecule: CC(C)CC(C)(C)C [Isooctane, isooctane, reference compound]

Molecule: Cc1ccc(C)cc1 [p-Xylene, p-xylene, reference compound]
KSolvent partition coefficient [6, 17]: 0.0074
Solvent Partition Coefficient [1]: 0.00015

KSolvent partition coefficient [6, 17]: 0.01695
Solvent Partition Coefficient [1]: 0.00028
Molecule: CCCCCCCCCCO [1-Decanol, 1-decanol, reference compound]

KSolvent partition coefficient [6]: 0.00661
Molecule: CCCCCCCCCC [n-Decane, decane, reference compound]

KSolvent partition coefficient [6]: 0.02526
Molecule: COC(=O)c1ccc(C(=O)OC)cc1 [DMT, dimethyl terphthalate, reference compound]
